Measured values from PubChem BioAssay (NCI).
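The compound was tested at five concentrations on cells cultured in 96-well plates, with a 48-hour exposure period. GI50 is the concentration that inhibits growth by half. TGI: concentration producing complete growth inhibition.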

Assays:
Assay in all cases: inhibition of tumour cell growth, NCI panel, 48 h
HT29 colon = tested on: HT29 colon
SW-620 colon = tested on: SW-620 colon
NCI-H522 lung = tested on: NCI-H522 lung
MDA-N = tested on: MDA-N
SK-MEL-28 melanoma = tested on: SK-MEL-28 melanoma
ACHN renal = tested on: ACHN renal
RPMI-8226 leukemia = tested on: RPMI-8226 leukemia
HOP-62 NSCLC = tested on: HOP-62 NSCLC
M14 melanoma = tested on: M14 melanoma
TK-10 renal = tested on: TK-10 renal
MALME-3M melanoma = tested on: MALME-3M melanoma
OVCAR-5 ovarian = tested on: OVCAR-5 ovarian
SN12C renal = tested on: SN12C renal
OVCAR-3 ovarian = tested on: OVCAR-3 ovarian
EKVX NSCLC = tested on: EKVX NSCLC
T-47D breast = tested on: T-47D breast
SF-295 CNS = tested on: SF-295 CNS
UACC-62 melanoma = tested on: UACC-62 melanoma
BT-549 breast = tested on: BT-549 breast

| Compound | TGI (HT29 colon) [µM] | TGI (SW-620 colon) [µM] | TGI (NCI-H522 lung) [µM] | TGI (MDA-N) [µM] | TGI (SK-MEL-28 melanoma) [µM] | TGI (ACHN renal) [µM] | TGI (RPMI-8226 leukemia) [µM] | TGI (HOP-62 NSCLC) [µM] | TGI (M14 melanoma) [µM] | TGI (TK-10 renal) [µM] | TGI (MALME-3M melanoma) [µM] | TGI (OVCAR-5 ovarian) [µM] | TGI (SN12C renal) [µM] | TGI (OVCAR-3 ovarian) [µM] | TGI (EKVX NSCLC) [µM] | TGI (T-47D breast) [µM] | TGI (SF-295 CNS) [µM] | TGI (UACC-62 melanoma) [µM] | TGI (BT-549 breast) [µM] | GI50 (BT-549 breast) [µM] |
| --- | --- | --- | --- | --- | --- | --- | --- | --- | --- | --- | --- | --- | --- | --- | --- | --- | --- | --- | --- | --- |
| CC(C)C1=CC23CCC4C(C)(C(=O)O)CCCC4(C)C2CC1C1C(=O)N(c2ccc(N4C(=O)C5C6CC7C8(C)CCCC(C)(C(=O)O)C8CCC7(C=C6C(C)C)C5C4=O)cc2)C(=O)C13 (stereo not given) | 5.22 | 21.6 | 17 | 16.1 | 16.7 | 18.4 | 80.3 | 19.3 | 15.8 | 29.9 | 27.9 | 22 | 17.5 | 18.6 | 18.7 | 26.8 |  |  |  |  |
| NC(=S)N/N=C/c1cn(CCCl)c2ccccc12 | > 100 | > 100 | > 100 |  | > 100 |  | > 100 | > 100 | > 100 | > 100 | > 100 | > 100 | > 100 | > 100 | > 100 |  | > 100 | > 100 |  |  |
| O=C1CCN(CCC(F)(F)C(F)(F)C(F)(F)C(F)(F)F)C(=S)N1 | > 100 | > 100 | > 100 |  | > 100 | > 100 | > 100 | > 100 | > 100 | > 100 | > 100 | > 100 | > 100 | > 100 | > 100 |  | > 100 | > 100 |  |  |
| Brc1ccc2[nH]cc([C@@H]3CN[C@@H](c4c[nH]c5ccc(Br)cc45)CN3)c2c1 | 15.5 | 15.6 | 4.39 |  | 27.8 | 9.59 | 5.46 | 23.1 | 15 | 16.4 | 29.6 | 20.6 | 17.8 | 18.4 | 20.3 | 29.2 | 14.7 | 21.8 | 30.8 |  |
| CCOC(=O)c1sc2c(c1OC(=O)c1ccc(Cl)cc1Cl)c(=O)n(-c1ccccc1)c(=S)n2-c1ccccc1 | > 77.5 | > 100 | > 100 | 68.7 | > 100 | > 100 | > 54.5 | > 100 | > 100 | > 100 | 66.3 | > 100 | 22.6 | > 100 | 97.2 | > 100 | > 100 | > 80.2 |  |  |
| CCN(CC)CCC1CCCCN1CC(=O)N1c2ccccc2NC(=O)CC1C (stereo not given) | > 100 |  | > 100 | > 100 | > 100 | > 100 | > 100 | > 100 | > 100 | > 100 | > 100 | > 100 | > 100 | > 100 | > 100 | > 100 | > 100 | > 100 |  |  |
| Cc1c(/C=N/NC(=S)Nc2ccc([N+](=O)[O-])cc2)c(=O)n(-c2ccccc2)n1C | 25.5 | > 100 |  |  | > 100 | 23.6 | > 100 | 23.8 | 28.6 | 26.3 |  |  |  |  | 24.5 |  | 22.7 | 33.7 | 36.5 |  |
| N[C@@H]1c2c(Br)sc(Br)c2C(=O)[C@H]1Br | 53.3 | 44.4 | 29 |  | 54.8 | 43.8 | 39.5 | > 93.6 | 50.9 | > 100 | 57.4 | > 100 | 58.9 | > 89.8 | > 88 | 84 | > 100 | 59.3 | 43.1 |  |
| CN1CCN(Cn2nc(-c3ccccc3)n(/N=C/c3ccc(-c4ccc(Cl)cc4Cl)o3)c2=S)CC1 | 36.3 | 32.9 | > 100 | > 100 | 77.8 |  | 75.6 | 30.5 | 39.1 | 29.7 |  | 48 |  | 28.5 | > 100 | 45.1 | 29.9 |  |  |  |
| Cc1ccc(NCCO)cc1 | > 100 | > 100 | > 100 |  | > 100 | > 100 | > 100 | > 100 | > 100 | > 100 | > 100 | > 100 | > 100 | > 100 | > 100 |  | > 100 | > 100 |  |  |
| NCCSC1(O)C(=O)c2ccccc2-c2ccccc21 (stereo not given) | 3.8 | 3.16 | 2.95 |  | 2.85 | 2.23 | 0.637 | 3.22 | 4.25 | 3.26 | 2.84 | 3.34 | 2.76 | 0.38 | 3.11 | 2.11 | 2.28 | 2.91 | 2.9 | 1.56 |
| CC1OC(n2ccc3ccc([N+](=O)[O-])cc32)C(O)C(O)C1O (stereo not given) | > 100 | > 100 | > 100 |  | > 100 | > 100 | > 100 | > 100 | > 100 | > 100 | > 100 | > 100 | > 100 | > 100 | > 100 |  | > 100 | > 100 |  |  |
| COc1ccc(/C=C2\C(=O)Nc3ccccc32)cc1OC | > 100 | > 100 | > 100 |  | > 100 | > 100 | 64 | > 100 | > 100 | > 100 | > 100 | > 100 | > 100 |  | > 100 |  | > 100 | > 100 |  |  |
| CC1=N/C(=C\c2ccc(N)cc2)C(=O)N1Nc1nnc(NN2C(=O)/C(=C/c3ccc(N)cc3)N=C2C)c2ccccc12 | > 100 | > 100 | 41.7 |  | > 100 | > 100 | > 100 | 64.3 | > 100 |  |  | > 100 | > 100 |  | > 100 |  | 69.3 | > 100 |  |  |
| O=C(CC(O)(C(F)(F)Cl)C(F)(F)Cl)CC(O)(C(F)(F)Cl)C(F)(F)Cl | > 10 | > 10 | > 10 | > 10 | > 10 | > 10 | 4.84 | 5.11 | > 10 | > 10 | 4.36 |  | > 10 | > 10 | 8.02 | 6.6 | 9.51 | > 10 |  |  |
| CC(=O)c1cc2sc3ccccc3c2[nH]1 | > 100 | > 100 | > 100 | > 100 | > 100 | > 100 | > 100 | > 100 | > 100 | > 100 | > 100 | > 100 | > 100 | > 100 |  | > 100 | > 100 | > 100 |  |  |
| Nc1ccc(N=Nc2ccc(-c3ccc(N=Nc4c(S(=O)(=O)O)cc5cc(S(=O)(=O)O)c(N=Nc6ccc([N+](=O)[O-])cc6)c(N)c5c4O)cc3)cc2)c2cc(S(=O)(=O)O)ccc12 | > 100 | > 100 | > 100 |  | > 100 | > 100 | > 100 | > 100 | > 100 | > 100 | > 100 | > 100 | > 100 | > 100 | > 100 |  | > 100 | > 100 |  |  |
| Cn1c(=O)oc2cc(C(=O)CN3CCN(Cc4ccc5c(c4)OCO5)CC3)c(Cl)cc21 |  |  |  | > 100 |  | > 100 | > 100 | > 100 |  |  | > 100 | > 100 | > 100 |  |  | > 100 | > 100 | > 100 |  |  |
| COc1cc(/C=C(\C)c2ccc3c(c2)OCO3)cc(OC)c1OC | > 100 | 95 | 69 |  | > 100 | 49.3 |  | > 100 | > 100 | > 100 | 62.1 | > 100 | > 100 | > 100 | 51.8 |  | > 100 |  |  |  |
| CC1(C)OC[C@@H]([C@H](C=O)OCc2ccccc2)O1 | > 100 | > 100 |  | > 100 | > 100 | > 100 | > 100 | > 100 | > 100 | > 100 | > 100 | > 100 | > 100 | > 100 | > 100 |  | > 100 | > 100 |  |  |
| Cc1ccc(OC2CC(n3cnc4c(=O)[nH]c(Br)nc43)OC2Oc2ccc(C)cc2)cc1 (stereo not given) | 83.4 | > 100 | 59.8 |  |  | 38 | 87.9 | 49.5 | 62.1 | 49.8 | 61.5 | 48.2 | 56.5 | 39.9 | 62.8 | 62.1 | 61.9 | 53.7 | 67.5 |  |
| CNc1cccc(-c2cc(=O)c3cc4c(cc3[nH]2)OCO4)c1 | 2.71 | > 100 | 0.443 |  | > 100 | > 100 |  |  | > 100 | 77.5 | > 100 | 97.8 | > 42.8 |  |  | > 100 | > 22.9 | > 100 | > 100 |  |
| N#CC(NNC(=O)Cc1ccccc1)c1ccc(O)cc1 (stereo not given) | > 100 | > 100 | > 100 |  | > 100 | > 100 | > 100 | > 100 | > 100 | > 100 | > 100 | > 100 | > 100 |  |  |  | > 100 | > 100 |  |  |
| CC1(C)CC(=O)c2c(nc3c(ccc4ccccc43)c2-c2ccc(NC(=O)CCCCCCCCC(=O)Nc3ccc(-c4c5c(nc6c4ccc4ccccc46)CC(C)(C)CC5=O)cc3)cc2)C1 | > 100 | > 100 | > 100 | > 100 | > 100 | > 100 | > 100 | > 100 | > 100 | > 100 |  | > 100 | > 100 | > 100 | > 100 | > 100 | > 100 |  |  |  |
| O=C1NC(=S)NC1C(Cc1ccccc1)c1ccco1 (stereo not given) | > 100 | > 100 | > 100 | > 100 | > 100 | > 100 | > 100 |  | > 100 | > 100 | > 100 | > 100 | > 100 |  | > 100 | > 100 | > 100 |  |  |  |
| COc1cc2c(OC)c3cc(C)oc(=O)c3c(O)c2c(O)c1-c1c(OC)cc2c(OC)c3cc(C)oc(=O)c3c(O)c2c1O | 55.3 | > 100 | 40 |  | 53.5 | 33.3 | 40.2 | 30.1 | 35.4 | 66.8 | 37.2 | 40.9 | 45.2 | 33.9 | 62.3 | > 100 | 39.7 | 41 | 68.5 |  |
| Nc1c2ccccc2nc2nccnc12 | > 100 | > 100 | > 100 |  | > 100 | > 100 | > 100 | > 100 | > 100 | > 100 | > 100 | > 100 | > 100 | > 100 | > 100 |  | > 100 | > 100 |  |  |
| CCN1CCC(O)(/C=C/c2cccc(C)c2)C(C(=O)/C=C/c2cccc(C)c2)C1 (stereo not given) | 3.18 | 7.38 | 4.65 | 8.67 | 4.49 | 2.93 | 4.78 |  | 7.47 | 3.92 | 3.53 | 6.98 | 7.04 | 12.4 | 4.25 | 8.38 | 4.51 | 3.54 |  |  |
